{"source": "patent US20180105548A1", "about": "“A novel compound (KS-513) isolated from Pseudolysimachion rotundum var. subintegrum, the composition comprising the same preventing or treating allergic disease, inflammatory disease, asthma or chronic obstructive pulmonary disease and the use thereof” (priority 2015, published 2018)", "format_in_all_cases": "cell-based, mouse", "key": {"COX-2": {"system": "COX-2", "test": "mRNA expression of COX-2 in RAW264.7 cell line induced by LPS (real-time PCR)", "conditions": "for COX-2 mRNA expression, Fold (value compared with a negative group) / COX-2 mRNA expression, Inhibition ratio (IR) compared with LPS treatment group: LPS 1 μg/ml, 12 hours", "method": "(§1) In order to determine the inhibitory effect on the mRNA expression of pro-inflammatory medicated enzyme such as iNOS or COX-2, and pro-inflammatory medicated cytokines such as IL-1beta, IL-6, TNF-alpha in RAW264.7 cell line induced by LPS, following test using by real-time PCR (real-time polymerase chain reaction, quantitative real time polymerase chain reaction, qPCR) was performed according to the method disclosed in the literature (Livak, K. J., Schimittgen T. D., 2001, Analysis of relative gene expression data using real-time quantitiative PCR and the 2 (-Delta Delta C(T) method, Methods 25, p 402-408):\n(§2) RAW264.7 cell was inoculated into 6-well-plates in the concentration of 1×10^6 cell/well to incubate for 12 hours. Various concentration of KS-513 compound (2.5, 5, 10 and 20 μM) was pre-treated therewith and 1 μg/mL of LPS (L6529, Sigma) was added thereto to incubate for 12 hours.\n(§3) To extract total RNA, RNA was extracted using by Triazol B (invitrogen) and cDNA was synthesized using by Omniscript RT kit (205113, Qiagen, Gmbh, Hilden, Germany) after the quantification. The synthesized cDNA was mixed with its template and the primers shown in Table 3 (SEQ.I.D. 1-14), performed to denaturation at 94° C. for 5 mins using by PCR mix (PCR master Mix, Bioneer, Korea), and reacted as follows: 1 cycle for pre-denaturation; at 95° C. for 30 sec, 60° C. for 45 sec, 72° C. for 45 sec, 30 cycles for denaturation; 10 mins at 72° C., 1cycle for final extension. (FIG. 2)"}, "IL-1beta": {"system": "IL-1beta", "test": "mRNA expression of IL-1beta in RAW264.7 cell line induced by LPS (real-time PCR)", "conditions": "for IL-1beta mRNA expression, Fold (value compared with a negative group) / IL-1beta mRNA expression, Inhibition ratio (IR) compared with LPS treatment group: LPS 1 μg/ml, 12 hours", "method": "as §1, §2, §3"}, "iNOS": {"system": "iNOS", "test": "iNOS protein expression in RAW264.7 cell induced by LPS (Western blot)", "conditions": "2.5, 5, 10 and 20 μM, LPS 1 μg/mL, 12 hours, FIG. 3A", "method": "The expressed level of iNOS in RAW264.7 cell induced by LPS (1 μg/ml) was determined by using Western blot analysis. RAW264.7 cell was inoculated into […] in the concentration of 1×10^6 cell/well to incubate for 12 hours. Various concentration of KS-513 compound (2.5, 5, 10 and 20 μM) was pre-treated therewith and 1 μg/mL of LPS (L6529, Sigma) was added thereto to incubate for 12 hours.\nTo extract protein, after washing the cell with ice-cold PBS three times, lysis buffer (50 mM Tris HCl (pH 8.0), 5 mM EDTA, 150 mM NaCl, 1% NP-40, 0.1% SDS, 1 mM PMSF, and protease inhibitor cocktail tablet (Roche, Germany, 11697498001) was added to the cell, reacted at 4° C. for 30 mins and centrifuged for 10 mins at the speed of 12,000 rpm to collect the supernatant.\nThe equivalent amount of the protein was isolated by SDS-PAGE and the protein was transferred to nitrocellulose membrane (BR162-0145, Bio-Rad). […] The product was reacted with ECL system and the amount of protein was determined by imaging analysis apparatus (LAS-4000, Fujifilm).\nThe quantitative determination of protein was performed by determining the absorbance using assay kit (Bradford protein assay kit, Thermo) at 595 nm and the result was shown in FIG. 3A."}, "RAW264.7 cell": {"system": "RAW264.7 cell", "test": "Cytotoxicity test (CCK-8) in RAW264.7 cell", "conditions": "up to 80 μM", "method": "(§4) RAW264.7 cell (TIB-71, ATCC), a mouse macrophage cell, was suspended in 5% FBS (Fetal Bovine Serum)-supplemented DMEM (Dulbecco's Modified Eagle Medium, Gibco) medium in a concentration of 1×10^5 cells/ml, and 100 μL of the suspension was inoculated into 96 well plates to adhere cell to the plate for 4 hours. Various concentrations of test sample (KS 513 compound) were treated therewith and cultured for 24 hours. 10 μL of CCK-8 solution was mixed therewith according to the manufacture's manual kit (Dojindo Co. Ltd), reacted from 30 mins to 4 hours, and the absorbance of the solution was determined at […]. The cell viability was calculated according to following Math formulae 1 based on negative control group treated with 0.2% DMSO and the result was shown in Table 2.\n(§5) Cell viability (%)=OD 570 nm (test group)/OD 570 nm (negative control group)×100 Math formulae 1"}, "[1]": {"test": "Cytotoxicity test (CCK-8) in RAW264.7 cell", "conditions": "mouse, RAW264.7 macrophage cells", "method": "as §4, §5"}, "TNF-alpha": {"system": "TNF-alpha", "test": "mRNA expression of TNF-alpha in RAW264.7 cell line induced by LPS (real-time PCR)", "conditions": "for TNF-alpha mRNA expression, Fold (value compared with a negative group) / TNF-alpha mRNA expression, Inhibition ratio (IR) compared with LPS treatment group: LPS 1 μg/ml, 12 hours", "method": "as §1, §2, §3"}, "[2]": {"conditions": "various concentration, compared with control group treated with LPS (100%)"}}}
{"molecule": "CO[C@@H]1C[C@H]2[C@H](OC(=O)c3ccc(O)cc3)[C@@H]3O[C@]3(CO)[C@H]2[C@H](O[C@@H]2O[C@H](CO)[C@@H](O)C(O)[C@H]2O)O1", "note": "(stereo partly drawn) [KS-513, (1aS, 1bS,2S,4S,5aR,6S,6aS)-1a-(hydroxymethyl)-4-methoxy-2-(((2S,3R,5S,6R)-3,4,5-trihydroxy-6-(hydroxymethyl)tetrahydro-2H-pyran-2-yl)oxy)octahydrooxireno[2′,3′:4,5]cyclopenta[1,2-c]pyran-6-yl 4-hydroxybenzoate]", "values": [{"measurement": "COX-2 mRNA expression, Fold (value compared with a negative group)", "setting": "COX-2; 2.5 μM", "result": "4.72 ± 0.21", "unit": "Fold"}, {"measurement": "COX-2 mRNA expression, Inhibition ratio (IR) compared with LPS treatment group", "setting": "COX-2; 2.5 μM", "result": 39.91, "unit": "%"}, {"measurement": "COX-2 mRNA expression, Fold (value compared with a negative group)", "setting": "COX-2; 5 μM", "result": "2.64 ± 0.15", "unit": "Fold"}, {"measurement": "COX-2 mRNA expression, Inhibition ratio (IR) compared with LPS treatment group", "setting": "COX-2; 5 μM", "result": 66.40, "unit": "%"}, {"measurement": "COX-2 mRNA expression, Fold (value compared with a negative group)", "setting": "COX-2; 10 μM", "result": "1.43 ± 0.50", "unit": "Fold"}, {"measurement": "COX-2 mRNA expression, Inhibition ratio (IR) compared with LPS treatment group", "setting": "COX-2; 10 μM", "result": 81.81, "unit": "%"}, {"measurement": "COX-2 mRNA expression, Fold (value compared with a negative group)", "setting": "COX-2; 20 μM", "result": "0.97 ± 0.38", "unit": "Fold"}, {"measurement": "COX-2 mRNA expression, Inhibition ratio (IR) compared with LPS treatment group", "setting": "COX-2; 20 μM", "result": 87.66, "unit": "%"}, {"measurement": "expressed level of mRNA of COX-2", "setting": "COX-2; [2]", "result": "significantly decreased in a dose dependent manner"}, {"measurement": "IL-1beta mRNA expression, Fold (value compared with a negative group)", "setting": "IL-1beta; 2.5 μM", "result": "10.41 ± 1.09", "unit": "Fold"}, {"measurement": "IL-1beta mRNA expression, Inhibition ratio (IR) compared with LPS treatment group", "setting": "IL-1beta; 2.5 μM", "result": 37.69, "unit": "%"}, {"measurement": "IL-1beta mRNA expression, Fold (value compared with a negative group)", "setting": "IL-1beta; 5 μM", "result": "5.72 ± 0.24", "unit": "Fold"}, {"measurement": "IL-1beta mRNA expression, Inhibition ratio (IR) compared with LPS treatment group", "setting": "IL-1beta; 5 μM", "result": 65.75, "unit": "%"}, {"measurement": "IL-1beta mRNA expression, Fold (value compared with a negative group)", "setting": "IL-1beta; 10 μM", "result": "2.56 ± 0.14", "unit": "Fold"}, {"measurement": "IL-1beta mRNA expression, Inhibition ratio (IR) compared with LPS treatment group", "setting": "IL-1beta; 10 μM", "result": 84.68, "unit": "%"}, {"measurement": "IL-1beta mRNA expression, Fold (value compared with a negative group)", "setting": "IL-1beta; 20 μM", "result": "1.70 ± 0.59", "unit": "Fold"}, {"measurement": "IL-1beta mRNA expression, Inhibition ratio (IR) compared with LPS treatment group", "setting": "IL-1beta; 20 μM", "result": 89.85, "unit": "%"}, {"measurement": "expressed level of mRNA of IL-1beta", "setting": "IL-1beta; [2]", "result": "significantly decreased in a dose dependent manner"}, {"measurement": "expressed level of iNOS protein", "setting": "iNOS", "result": "reduced in a dose dependent manner"}, {"measurement": "cytotoxicity in RAW264.7 cell", "setting": "RAW264.7 cell", "result": "did not show cytotoxicity"}, {"measurement": "viability at 24 h, 2.5 µM", "setting": "[1]; 2.5 μM, 24 hours, vs negative control 0.2% DMSO, read-out: RAW264.7 cell viability (%, mean ± variation)", "result": "99.6 ± 3.66", "unit": "%"}, {"measurement": "viability at 24 h, 5 µM", "setting": "[1]; 5 μM, 24 hours, vs negative control 0.2% DMSO, read-out: RAW264.7 cell viability (%, mean ± variation)", "result": "99.3 ± 5.68", "unit": "%"}, {"measurement": "viability at 24 h, 10 µM", "setting": "[1]; 10 μM, 24 hours, vs negative control 0.2% DMSO, read-out: RAW264.7 cell viability (%, mean ± variation)", "result": "98.2 ± 3.28", "unit": "%"}, {"measurement": "viability at 24 h, 20 µM", "setting": "[1]; 20 μM, 24 hours, vs negative control 0.2% DMSO, read-out: RAW264.7 cell viability (%, mean ± variation)", "result": "94.7 ± 3.03", "unit": "%"}, {"measurement": "viability at 24 h, 40 µM", "setting": "[1]; 40 μM, 24 hours, vs negative control 0.2% DMSO, read-out: RAW264.7 cell viability (%, mean ± variation)", "result": "97.2 ± 7", "unit": "%"}, {"measurement": "viability at 24 h, 80 µM", "setting": "[1]; 80 μM, 24 hours, vs negative control 0.2% DMSO, read-out: RAW264.7 cell viability (%, mean ± variation)", "result": "95.1 ± 2.73", "unit": "%"}, {"measurement": "viability at 24 h", "setting": "[1]; at less than 80 μM", "result": "> 95", "unit": "%"}, {"measurement": "TNF-alpha mRNA expression, Fold (value compared with a negative group)", "setting": "TNF-alpha; 2.5 μM", "result": "9.60 ± 3.33", "unit": "Fold"}, {"measurement": "TNF-alpha mRNA expression, Inhibition ratio (IR) compared with LPS treatment group", "setting": "TNF-alpha; 2.5 μM", "result": 14.34, "unit": "%"}, {"measurement": "TNF-alpha mRNA expression, Fold (value compared with a negative group)", "setting": "TNF-alpha; 5 μM", "result": "5.34 ± 3.27", "unit": "Fold"}, {"measurement": "TNF-alpha mRNA expression, Inhibition ratio (IR) compared with LPS treatment group", "setting": "TNF-alpha; 5 μM", "result": 52.39, "unit": "%"}, {"measurement": "TNF-alpha mRNA expression, Fold (value compared with a negative group)", "setting": "TNF-alpha; 10 μM", "result": "2.72 ± 0.99", "unit": "Fold"}, {"measurement": "TNF-alpha mRNA expression, Inhibition ratio (IR) compared with LPS treatment group", "setting": "TNF-alpha; 10 μM", "result": 75.69, "unit": "%"}, {"measurement": "TNF-alpha mRNA expression, Fold (value compared with a negative group)", "setting": "TNF-alpha; 20 μM", "result": "1.49 ± 0.77", "unit": "Fold"}, {"measurement": "TNF-alpha mRNA expression, Inhibition ratio (IR) compared with LPS treatment group", "setting": "TNF-alpha; 20 μM", "result": 86.70, "unit": "%"}, {"measurement": "expressed level of mRNA of TNF-alpha", "setting": "TNF-alpha; [2]", "result": "significantly decreased in a dose dependent manner"}]}
